Experimental data published in patent US8940909B2, “Indicator platform” (Biosynth AG, priority 2009, dated 2015).

Tests used:
Test in all cases: IO staining of colonies of beta-D-galactosidase positive/negative bacteria (Table IVb)
Assay type in all cases: cell-based
[1] = system: Staphylococcus saprophyticus 273; conditions: Staphylococcus saprophyticus strain 273, b-gal +; 24 h on Nutrient Agar, 150 mg/l indicator, 100 mg/l IPTG; as to G: Growth of colonies: key: −: absent; +/−: weak; +: strong; ++: very strong
[2] = system: Shigella dysenteriae Serovar 1 131; conditions: Shigella dysenteriae Serovar 1 strain 131, b-gal +/−; 24 h on Nutrient Agar, 150 mg/l indicator, 100 mg/l IPTG
[3] = system: Pseudomonas aeruginosa 168; conditions: Pseudomonas aeruginosa strain 168, b-gal −, 24 h on Nutrient Agar, 150 mg/l indicator, 100 mg/l IPTG; as to C: Color of colonies: key: −: absent; +/−: weak; +: strong; ++: very strong; as to G: Growth of colonies: key: −: absent; +/−: weak; +: strong; ++: very strong
Escherichia coli 270 = conditions: Escherichia coli strain 270, b-gal +; 24 h on Nutrient Agar, 150 mg/l indicator, 100 mg/l IPTG
Escherichia coli 61 = conditions: Escherichia coli strain 61, b-gal +; 24 h on Nutrient Agar, 150 mg/l indicator, 100 mg/l IPTG
Aeromonas hydrophila 292 = conditions: Aeromonas hydrophila strain 292, b-gal +; 24 h on Nutrient Agar, 150 mg/l indicator, 100 mg/l IPTG
Shigella boydii 135 = conditions: Shigella boydii strain 135, b-gal −; 24 h on Nutrient Agar, 150 mg/l indicator, 100 mg/l IPTG
Bacillus subtilis 65 = conditions: Bacillus subtilis strain 65, b-gal −; 24 h on Nutrient Agar, 150 mg/l indicator, 100 mg/l IPTG
Salmonella bongori 81 = conditions: Salmonella bongori strain 81, b-gal +; 24 h on Nutrient Agar, 150 mg/l indicator, 100 mg/l IPTG
Serratia marcescens 40 = conditions: Serratia marcescens strain 40, b-gal +; 24 h on Nutrient Agar, 150 mg/l indicator, 100 mg/l IPTG
[4] = system: Escherichia coli (O157:H7) 60; conditions: Escherichia coli (O157:H7) strain 60, b-gal +; 24 h on Nutrient Agar, 150 mg/l indicator, 100 mg/l IPTG
Staphylococcus aureus 2 = conditions: Staphylococcus aureus strain 2, b-gal −, 24 h on Nutrient Agar, 150 mg/l indicator, 100 mg/l IPTG
Enterobacter cloacae 245 = conditions: Enterobacter cloacae strain 245, b-gal +; 24 h on Nutrient Agar, 150 mg/l indicator, 100 mg/l IPTG
[5] = system: Enterobacter aerogenes 242; conditions: Enterobacter aerogenes strain 242, b-gal +; 24 h on Nutrient Agar, 150 mg/l indicator, 100 mg/l IPTG; as to C: Color of colonies: key: −: absent; +/−: weak; +: strong; ++: very strong; as to G: Growth of colonies: key: −: absent; +/−: weak; +: strong; ++: very strong
[6] = system: Staphylococcus intermedius 31; conditions: Staphylococcus intermedius strain 31, b-gal +; 24 h on Nutrient Agar, 150 mg/l indicator, 100 mg/l IPTG
[7] = system: Yersinia enterocolitica 175; conditions: Yersinia enterocolitica strain 175, b-gal +/−; 24 h on Nutrient Agar, 150 mg/l indicator, 100 mg/l IPTG; as to G: Growth of colonies: key: −: absent; +/−: weak; +: strong; ++: very strong
[8] = system: Listeria monocytogenes (4b) 290; conditions: Listeria monocytogenes (4b) strain 290, b-gal −; 24 h on Nutrient Agar, 150 mg/l indicator, 100 mg/l IPTG; as to C: Color of colonies: key: −: absent; +/−: weak; +: strong; ++: very strong; as to F: Fluorescence of colonies: key: −: absent; +/−: weak; +: strong; ++: very strong
Citrobacter freundii 181 = conditions: Citrobacter freundii strain 181, b-gal +; 24 h on Nutrient Agar, 150 mg/l indicator, 100 mg/l IPTG
[9] = system: Streptococcus agalactiae 195; conditions: Streptococcus agalactiae strain 195, b-gal −; 24 h on Nutrient Agar, 150 mg/l indicator, 100 mg/l IPTG; as to C: Color of colonies: key: −: absent; +/−: weak; +: strong; ++: very strong; as to F: Fluorescence of colonies: key: −: absent; +/−: weak; +: strong; ++: very strong
Salmonella illa 73 = conditions: Salmonella illa strain 73, b-gal +; 24 h on Nutrient Agar, 150 mg/l indicator, 100 mg/l IPTG
[10] = system: Salmonella enteritidis 43; conditions: Salmonella enteritidis strain 43, b-gal −; 24 h on Nutrient Agar, 150 mg/l indicator, 100 mg/l IPTG; also: key: −: absent; +/−: weak; +: strong; ++: very strong

Substance: 5-Bromo-4-chloro-1H-indol-3-yl-beta-D-galactopyranoside [Indicator I4a, reference compound]
- C: Color of colonies [1]: +
- F: Fluorescence of colonies [1]: −
- G: Growth of colonies [1]: +
- C: Color of colonies [2]: −
- F: Fluorescence of colonies [2]: −
- G: Growth of colonies [2]: +
- C: Color of colonies [3]: −
- G: Growth of colonies [3]: +
- F: Fluorescence of colonies ([3]; footnote 1: blue autofluorescence): +^1
- C: Color of colonies (Escherichia coli 270): ++
- F: Fluorescence of colonies (Escherichia coli 270): −
- G: Growth of colonies (Escherichia coli 270): +
- C: Color of colonies (Escherichia coli 61): ++
- F: Fluorescence of colonies (Escherichia coli 61): −
- G: Growth of colonies (Escherichia coli 61): +
- C: Color of colonies (Aeromonas hydrophila 292): +
- F: Fluorescence of colonies (Aeromonas hydrophila 292): −
- G: Growth of colonies (Aeromonas hydrophila 292): +
- C: Color of colonies (Shigella boydii 135): −
- F: Fluorescence of colonies (Shigella boydii 135): −
- G: Growth of colonies (Shigella boydii 135): +
- C: Color of colonies (Bacillus subtilis 65): −
- F: Fluorescence of colonies (Bacillus subtilis 65): −
- G: Growth of colonies (Bacillus subtilis 65): +
- C: Color of colonies (Salmonella bongori 81): +/−
- F: Fluorescence of colonies (Salmonella bongori 81): −
- G: Growth of colonies (Salmonella bongori 81): +
- C: Color of colonies (Serratia marcescens 40): +
- F: Fluorescence of colonies (Serratia marcescens 40): −
- G: Growth of colonies (Serratia marcescens 40): +
- C: Color of colonies [4]: ++
- F: Fluorescence of colonies [4]: −
- G: Growth of colonies [4]: +
- F: Fluorescence of colonies (Staphylococcus aureus 2): −
- G: Growth of colonies (Staphylococcus aureus 2): +
- C: Color of colonies (Staphylococcus aureus 2; footnote 2: S. aureus natural color): y^2
- C: Color of colonies (Enterobacter cloacae 245): ++
- F: Fluorescence of colonies (Enterobacter cloacae 245): −
- G: Growth of colonies (Enterobacter cloacae 245): +
- C: Color of colonies [5]: ++
- F: Fluorescence of colonies [5]: −
- G: Growth of colonies [5]: +
- C: Color of colonies [6]: +
- F: Fluorescence of colonies [6]: −
- G: Growth of colonies [6]: +
- C: Color of colonies [7]: −
- F: Fluorescence of colonies [7]: −
- G: Growth of colonies [7]: +
- C: Color of colonies [8]: −
- F: Fluorescence of colonies [8]: −
- G: Growth of colonies [8]: +/−
- C: Color of colonies (Citrobacter freundii 181): +
- F: Fluorescence of colonies (Citrobacter freundii 181): −
- G: Growth of colonies (Citrobacter freundii 181): +
- C: Color of colonies [9]: −
- F: Fluorescence of colonies [9]: −
- G: Growth of colonies [9]: +/−
- C: Color of colonies (Salmonella illa 73): −
- F: Fluorescence of colonies (Salmonella illa 73): −
- G: Growth of colonies (Salmonella illa 73): +
- C: Color of colonies [10]: −
- F: Fluorescence of colonies [10]: −
- G: Growth of colonies [10]: +
